# From BindingDB's records for doi:10.1021/acs.biochem.5b00536 (University of Pennsylvania, 2015)
# How the values were obtained:
# [1] = molecular target: T1, Acetylpolyamine amidohydrolase (Mycoplana ramosa, UniProt Q48935); assay: APAH Fluorimetric Assay; settings: pH 8.2
# T1 sequence (Q48935 whole entry): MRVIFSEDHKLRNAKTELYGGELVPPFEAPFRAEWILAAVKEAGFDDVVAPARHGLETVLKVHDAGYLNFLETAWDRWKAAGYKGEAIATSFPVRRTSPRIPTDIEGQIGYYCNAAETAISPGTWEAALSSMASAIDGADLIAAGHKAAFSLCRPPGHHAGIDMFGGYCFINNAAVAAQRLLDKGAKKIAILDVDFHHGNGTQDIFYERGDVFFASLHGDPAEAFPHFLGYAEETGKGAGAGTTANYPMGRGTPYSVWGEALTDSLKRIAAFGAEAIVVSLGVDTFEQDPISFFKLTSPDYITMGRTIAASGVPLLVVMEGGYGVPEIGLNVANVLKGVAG
# Description: (§1) Activity assays were conducted at 25 °C and contained 250 nM APAH (∼50% Zn2+ occupancy), 150 μM substrate, and 0−250 μM inhibitor in assay buffer [25 mM Tris (pH 8.2), 137 mM NaCl, 2.7 mM KCl, and 1 mM MgCl2] in a final volume of 50 μL. […] After 30 min, reactions were quenched by adding 100 μM M344 (Sigma-Aldrich) and the appropriate Fluor-de-Lys developer (BML-KI105, Enzo Life Sciences, 50 μL). Fluorescence was measured after 45 min using a Fluoroskan II plate reader (excitation at 355 nm, emission at 460 nm).
# Histone deacetylase 8 = molecular target: T2, Histone deacetylase 8 (Homo sapiens, UniProt Q9BY41); assay: HDAC8 Fluorimetric Assay; settings: pH 8.2
# T2 sequence (Q9BY41 whole entry): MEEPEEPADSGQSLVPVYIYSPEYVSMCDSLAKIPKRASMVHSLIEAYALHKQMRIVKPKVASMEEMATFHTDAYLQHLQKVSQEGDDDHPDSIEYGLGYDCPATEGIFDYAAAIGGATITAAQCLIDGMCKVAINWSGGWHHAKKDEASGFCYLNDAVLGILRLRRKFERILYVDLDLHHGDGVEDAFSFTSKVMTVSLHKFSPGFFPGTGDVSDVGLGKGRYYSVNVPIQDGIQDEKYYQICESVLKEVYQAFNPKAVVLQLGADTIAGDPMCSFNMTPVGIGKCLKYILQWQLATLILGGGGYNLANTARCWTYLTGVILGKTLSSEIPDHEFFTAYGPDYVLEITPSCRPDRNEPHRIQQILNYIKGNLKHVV
# Description: as §1, with “500” for “250”, “HDAC8 enzyme,” for “APAH (∼50% Zn2+ occupancy),”, “Ac-Arg-His-Lys(Ac)-Lys(Ac)-aminomethylcoumarin substrate (BML-KI178, Enzo Life Sciences),” for “substrate,”, “0−10 mM” for “0−250 μM”, “MgCl2; 250 μM tris(2-carboxyethyl)phosphine was added for the assay of thiol compound 2]” for “MgCl2]”, “(BMLKI176,” for “(BML-KI105,”
Compound,IC50 [1],IC50 (Histone deacetylase 8)
NCCCCCCCC(=O)NO,150 nM,2200 nM
"NCCCNCCCCCC(=O)C(F)(F)F [(3-azaniumylpropyl)(7,7,7-trifluoro-6-oxoheptyl)azanium (1)]",–,260 nM
NCCCNCCCCCS [(3-azaniumylpropyl)(5-sulfanylpentyl)azanium (2)],–,12000 nM
NCCCCCCC(=O)NO,68 nM,5300 nM
NCCCNCCCCCC(=O)NO [(3-azaniumylpropyl)[5-(hydroxycarbamoyl)pentyl]azanium (3)],–,14000 nM
NCCCCCC(=O)NO,130 nM,19000 nM
NCCCCC(=O)NO [5-Amino-N-hydroxypentanamide (4)],170 nM,120000 nM
